pKi: −log10 of the molar value.
Target: T1, Human Neuropeptide Y2 Receptor (Homo sapiens, UniProt P49146)
T1 construct: purchased CHEMICON HTS066M
T1 sequence (P49146 1-381): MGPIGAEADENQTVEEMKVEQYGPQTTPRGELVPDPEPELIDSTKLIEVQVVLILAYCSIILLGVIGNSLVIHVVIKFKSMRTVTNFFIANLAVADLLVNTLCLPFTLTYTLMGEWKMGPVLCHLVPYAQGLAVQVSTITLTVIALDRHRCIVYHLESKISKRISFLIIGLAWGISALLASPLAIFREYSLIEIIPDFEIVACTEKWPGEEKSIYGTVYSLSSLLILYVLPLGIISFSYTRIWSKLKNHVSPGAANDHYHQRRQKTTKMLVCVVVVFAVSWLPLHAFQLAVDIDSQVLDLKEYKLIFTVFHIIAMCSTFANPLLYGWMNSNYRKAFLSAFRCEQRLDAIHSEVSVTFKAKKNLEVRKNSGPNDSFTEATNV
Test: Radioligand binding competition assay (RLB)
Conditions: Table 3; human 125I-PYY (1-36) 0.02 nM, Y2 receptor membranes; read-out: Ki
Outline: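 Filtration format; Y2R membrane prep 0.5 μg/well; buffer 50 mM HEPES/5 mM MgCl2/1 mM CaCl2/0.2% ovalbumin pH 7.4; 2 h RT, shaking. Harvest on PEI-soaked GF/C, ice-cold HEPES/500 mM NaCl washes, scintillation count. IC50 by nonlinear fit.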

`CC(C)CC(=O)N[C@@H](C)C(=O)N1CCC[C@H]1C(=O)N[C@@H](CCC(=O)O)C(=O)N[C@@H](CCCCNC(=O)COCCOCCNC(=O)COCCOCCNC(=O)CC[C@H](NC(=O)CCCCCCCCCCCCCCCCC(=O)O)C(=O)O)C(=O)N1CCC[C@H]1C(=O)N[C@@H](CCC(=O)O)C(=O)N[C@@H](CCC(=O)O)C(=O)N[C@@H](CCC(=O)O)C(=O)N[C@@H](C)C(=O)N[C@@H](CO)C(=O)N1CCC[C@H]1C(=O)N[C@@H](CCC(=O)O)C(=O)N[C@@H](CCC(=O)O)C(=O)N[C@@H](CC(C)C)C(=O)N[C@@H](CCC(N)=O)C(=O)N[C@@H](CCCNC(=N)N)C(=O)N[C@@H](Cc1ccc(O)cc1)C(=O)N[C@@H](Cc1ccc(O)cc1)C(=O)N[C@H](C(=O)N[C@H](C(=O)N[C@@H](CC(C)C)C(=O)N[C@@H](CCCNC(=N)N)C(=O)N[C@@H](Cc1c[nH]cn1)C(=O)N[C@@H](Cc1ccc(O)cc1)C(=O)N[C@@H](Cc1ccc(O)cc1)C(=O)N[C@@H](CC(N)=O)C(=O)N[C@@H](Cc1c[nH]c2ccccc12)C(=O)N[C@@H](CC(C)C)C(=O)N[C@H](C(=O)N[C@@H](CCCNC(=N)N)C(=O)N[C@@H](CCC(N)=O)C(=O)N[C@@H](CCCNC(=N)N)C(=O)N[C@@H](Cc1ccc(O)cc1)C(N)=O)[C@@H](C)O)[C@@H](C)O)C(C)C` [Compound 119, N{alpha-4}-(3-methylbutanoyl)-N{epsilon-7}-[2-(2-{2-[2-(2-{2-[(4S)-4-carboxy-4-(17-carboxyheptadecanamido)butanamido]ethoxy}ethoxy)acetamido]ethoxy}ethoxy)acetamido]-[4A,7K,9E,11E,18Q,22V,23T,28Y,30W,31L]hPYY (4-36)] was tested, and the pKi was 8.48.
Work on `CC(C)CC(=O)N[C@@H](C)C(=O)N1CCC[C@H]1C(=O)N[C@@H](C)C(=O)N[C@@H](CCCCNC(=O)COCCOCCNC(=O)COCCOCCNC(=O)CC[C@H](NC(=O)CCCCCCCCCCCCCCCCC(=O)O)C(=O)O)C(=O)N1CCC[C@H]1C(=O)N[C@@H](CCC(=O)O)C(=O)N[C@@H](C)C(=O)N[C@@H](CC(=O)O)C(=O)N[C@@H](C)C(=O)N[C@@H](CO)C(=O)N1CCC[C@H]1C(=O)N[C@@H](CCC(=O)O)C(=O)N[C@@H](CCC(=O)O)C(=O)N[C@@H](CC(C)C)C(=O)N[C@@H](CCC(N)=O)C(=O)N[C@@H](CCCNC(=N)N)C(=O)N[C@@H](Cc1ccc(O)cc1)C(=O)N[C@@H](Cc1ccc(O)cc1)C(=O)N[C@H](C(=O)N[C@@H](CO)C(=O)N[C@@H](CC(C)C)C(=O)N[C@@H](CCCNC(=N)N)C(=O)N[C@@H](Cc1c[nH]cn1)C(=O)N[C@@H](Cc1ccc(O)cc1)C(=O)N[C@@H](Cc1ccc(O)cc1)C(=O)N[C@@H](CC(N)=O)C(=O)N[C@@H](Cc1c[nH]c2ccccc12)C(=O)N[C@@H](CC(C)C)C(=O)N[C@H](C(=O)N[C@@H](CCCNC(=N)N)C(=O)N[C@@H](CCC(N)=O)C(=O)N[C@@H](CCCNC(=N)N)C(=O)N[C@@H](Cc1ccc(O)cc1)C(N)=O)[C@@H](C)O)C(C)C` [Compound 121, N{alpha-4}-(3-methylbutanoyl)-N{epsilon-7}-[2-(2-{2-[2-(2-{2-[(4S)-4-carboxy-4-(17-carboxyheptadecanamido)butanamido]ethoxy}ethoxy)acetamido]ethoxy}ethoxy)acetamido]-[4A,6A,7K,9E,10A,18Q,22V,28Y,30W,31L]hPYY (4-36)] yielded a pKi of 9.21.
Work on `CC(C)CC(=O)N[C@@H](C)C(=O)N1CCC[C@H]1C(=O)N[C@@H](CCC(=O)O)C(=O)N[C@@H](CCCCNC(=O)COCCOCCNC(=O)COCCOCCNC(=O)CC[C@H](NC(=O)CCCCCCCCCCCCCCCCC(=O)O)C(=O)O)C(=O)N1CCC[C@H]1C(=O)N[C@@H](CCC(=O)O)C(=O)N[C@@H](CCC(=O)O)C(=O)N[C@@H](CC(=O)O)C(=O)N[C@@H](C)C(=O)N[C@@H](C)C(=O)N1CCC[C@H]1C(=O)N[C@@H](CCC(=O)O)C(=O)N[C@@H](CCC(=O)O)C(=O)N[C@@H](CC(C)C)C(=O)N[C@@H](CCC(N)=O)C(=O)N[C@@H](CCCNC(=N)N)C(=O)N[C@@H](Cc1ccc(O)cc1)C(=O)N[C@@H](Cc1ccc(O)cc1)C(=O)N[C@H](C(=O)N[C@@H](CO)C(=O)N[C@@H](CC(C)C)C(=O)N[C@@H](CCCNC(=N)N)C(=O)N[C@@H](Cc1c[nH]cn1)C(=O)N[C@@H](Cc1ccc(O)cc1)C(=O)N[C@@H](Cc1ccc(O)cc1)C(=O)N[C@@H](CC(N)=O)C(=O)N[C@@H](Cc1c[nH]c2ccccc12)C(=O)N[C@@H](CC(C)C)C(=O)N[C@H](C(=O)N[C@@H](CCCNC(=N)N)C(=O)N[C@@H](CCC(N)=O)C(=O)N[C@@H](CCCNC(=N)N)C(=O)N[C@@H](Cc1ccc(O)cc1)C(N)=O)[C@@H](C)O)C(C)C` [Compound 122, N{alpha-4}-(3-methylbutanoyl)-N{epsilon-7}-[2-(2-{2-[2-(2-{2-[(4S)-4-carboxy-4-(17-carboxyheptadecanamido)butanamido]ethoxy}ethoxy)acetamido]ethoxy}ethoxy)acetamido]-[4A,7K,9E,13A,18Q,22V,28Y,30W,31L]hPYY (4-36)] yielded a pKi of 8.74.
`CC(C)CC(=O)N[C@@H](C)C(=O)N1CCC[C@H]1C(=O)N[C@@H](C)C(=O)N[C@@H](CCCCNC(=O)COCCOCCNC(=O)COCCOCCNC(=O)CC[C@H](NC(=O)CCCCCCCCCCCCCCCCC(=O)O)C(=O)O)C(=O)N1CCC[C@H]1C(=O)N[C@@H](CCC(=O)O)C(=O)N[C@@H](CCC(=O)O)C(=O)N[C@@H](CC(=O)O)C(=O)N[C@@H](CO)C(=O)N[C@@H](CO)C(=O)N1CCC[C@H]1C(=O)N[C@@H](CCC(=O)O)C(=O)N[C@@H](CCC(=O)O)C(=O)N[C@@H](CC(C)C)C(=O)N[C@@H](CCC(N)=O)C(=O)N[C@@H](CCCNC(=N)N)C(=O)N[C@@H](Cc1ccc(O)cc1)C(=O)N[C@@H](Cc1ccc(O)cc1)C(=O)N[C@H](C(=O)N[C@@H](CO)C(=O)N[C@@H](CC(C)C)C(=O)N[C@@H](CCCNC(=N)N)C(=O)N[C@@H](Cc1c[nH]cn1)C(=O)N[C@@H](Cc1ccc(O)cc1)C(=O)N[C@@H](Cc1ccc(O)cc1)C(=O)N[C@@H](CC(N)=O)C(=O)N[C@@H](Cc1c[nH]c2ccccc12)C(=O)N[C@@H](CC(C)C)C(=O)N[C@H](C(=O)N[C@@H](CCCNC(=N)N)C(=O)N[C@@H](CCC(N)=O)C(=O)N[C@@H](CCCNC(=N)N)C(=O)N[C@@H](Cc1ccc(O)cc1)C(N)=O)[C@@H](C)O)C(C)C` [Compound 126, N{alpha-4}-(3-methylbutanoyl)-N{epsilon-7}-[2-(2-{2-[2-(2-{2-[(4S)-4-carboxy-4-(17-carboxyheptadecanamido)butanamido]ethoxy}ethoxy)acetamido]ethoxy}ethoxy)acetamido]-[4A,6A,7K,9E,12S,18Q,22V,28Y,30W,31L]hPYY (4-36)] showed a pKi of 8.93.
With `CC(C)CC(=O)N[C@@H](C)C(=O)N1CCC[C@H]1C(=O)N[C@@H](CCC(=O)O)C(=O)N[C@@H](CCCCNC(=O)COCCOCCNC(=O)COCCOCCNC(=O)CC[C@H](NC(=O)CCCCCCCCCCCCCCCCC(=O)O)C(=O)O)C(=O)N1CCC[C@H]1C(=O)N[C@@H](CCC(=O)O)C(=O)N[C@@H](CCC(=O)O)C(=O)N[C@@H](CC(=O)O)C(=O)N[C@H](C(=O)N[C@@H](CO)C(=O)N[C@@H](C)C(=O)N[C@@H](CCC(=O)O)C(=O)N[C@@H](CCC(=O)O)C(=O)N[C@@H](CC(C)C)C(=O)N[C@@H](CCC(N)=O)C(=O)N[C@@H](CCCNC(=N)N)C(=O)N[C@@H](Cc1ccc(O)cc1)C(=O)N[C@@H](Cc1ccc(O)cc1)C(=O)N[C@H](C(=O)N[C@@H](CO)C(=O)N[C@@H](CC(C)C)C(=O)N[C@@H](CCCNC(=N)N)C(=O)N[C@@H](Cc1c[nH]cn1)C(=O)N[C@@H](Cc1ccc(O)cc1)C(=O)N[C@@H](Cc1ccc(O)cc1)C(=O)N[C@@H](CC(N)=O)C(=O)N[C@@H](Cc1c[nH]c2ccccc12)C(=O)N[C@@H](CC(C)C)C(=O)N[C@H](C(=O)N[C@@H](CCCNC(=N)N)C(=O)N[C@@H](CCC(N)=O)C(=O)N[C@@H](CCCNC(=N)N)C(=O)N[C@@H](Cc1ccc(O)cc1)C(N)=O)[C@@H](C)O)C(C)C)[C@@H](C)O` [Compound 130, N{alpha-4}-(3-methylbutanoyl)-N{epsilon-7}-[2-(2-{2-[2-(2-{2-[(4S)-4-carboxy-4-(17-carboxyheptadecanamido)butanamido]ethoxy}ethoxy)acetamido]ethoxy}ethoxy)acetamido]-[4A,7K,9E,12T,14A, 18Q,22V,28Y,30W,31L]hPYY (4-36)] the pKi was 7.95.
`CC(C)CC(=O)N[C@@H](C)C(=O)N1CCC[C@H]1C(=O)N[C@@H](CCC(=O)O)C(=O)N[C@@H](CCCCNC(=O)COCCOCCNC(=O)COCCOCCNC(=O)CC[C@H](NC(=O)CCCCCCCCCCCCCCCCC(=O)O)C(=O)O)C(=O)N[C@@H](C)C(=O)N[C@@H](CCC(=O)O)C(=O)N[C@@H](CCC(=O)O)C(=O)N[C@@H](CC(=O)O)C(=O)N[C@@H](C)C(=O)N[C@@H](CO)C(=O)N1CCC[C@H]1C(=O)N[C@@H](CCC(=O)O)C(=O)N[C@@H](CCC(=O)O)C(=O)N[C@@H](CC(C)C)C(=O)N[C@@H](CCC(N)=O)C(=O)N[C@@H](CCCNC(=N)N)C(=O)N[C@@H](Cc1ccc(O)cc1)C(=O)N[C@@H](Cc1ccc(O)cc1)C(=O)N[C@H](C(=O)N[C@@H](CCC(=O)O)C(=O)N[C@@H](CC(C)C)C(=O)N[C@@H](CCCNC(=N)N)C(=O)N[C@@H](Cc1c[nH]cn1)C(=O)N[C@@H](Cc1ccc(O)cc1)C(=O)N[C@@H](Cc1ccc(O)cc1)C(=O)N[C@@H](CC(N)=O)C(=O)N[C@@H](Cc1c[nH]c2ccccc12)C(=O)N[C@@H](CC(C)C)C(=O)N[C@H](C(=O)N[C@@H](CCCNC(=N)N)C(=O)N[C@@H](CCC(N)=O)C(=O)N[C@@H](CCCNC(=N)N)C(=O)N[C@@H](Cc1ccc(O)cc1)C(N)=O)[C@@H](C)O)C(C)C` [Compound 131, N{alpha-4}-(3-methylbutanoyl)-N{epsilon-7}-[2-(2-{2-[2-(2-{2-[(4S)-4-carboxy-4-(17-carboxyheptadecanamido)butanamido]ethoxy}ethoxy)acetamido]ethoxy}ethoxy)acetamido]-[4A,7K,8A,9E,18Q,22V,23E,28Y,30W,31L]hPYY (4-36)] gave a pKi of 8.07.
